Measured values from US20140171427A1, “Heterocyclic chromene-spirocyclic piperidine amides as modulators of ion channels” (VERTEX PHARMACEUTICALS INCORPORATED, priority 2010, published 2014).

target: human NaV subtype; experiment: E-VIPR optical membrane potential assay with electrical stimulation; type: cell-based; conditions: active against one or more sodium channels; assay and NaV subtype not specified for Table 3; read-out: Binned Activity Data (IC50)
Source text: E-VIPR Optical Membrane Potential Assay Method with Electrical Stimulation
Sodium channels are voltage-dependent proteins that can be activated by inducing membrane voltage changes by applying electric fields. The electrical stimulation instrument and methods of use are described in Ion Channel Assay Methods PCT/US01/21652, herein incorporated by reference and are referred to as E-VIPR. The instrument comprises a microtiter plate handler, an optical system for exciting the coumarin dye while simultaneously recording the coumarin and oxonol emissions, a waveform generator, a current- or voltage-controlled amplifier, and a device for inserting electrodes in well. Under integrated computer control, this instrument passes user-programmed electrical stimulus protocols to cells within the wells of the microtiter plate.
24 hours before the assay on E-VIPR, HEK cells expressing human NaV subtype, like NaV 1.7, are seeded in 384-well poly-lysine coated plates at 15,000-20,000 cells per well. Other subtypes are performed in an analogous mode in a cell line expressing the NaV of interest. HEK cells are grown in media (exact composition is specific to each cell type and NaV subtype) supplemented with 10% FBS (Fetal Bovine Serum, qualified; GibcoBRL #16140-071) and 1% Pen-Strep (Penicillin-Streptomycin; GibcoBRL #15140-122). Cells are grown in vented cap flasks, in 90% humidity and 10% CO2, to 100% confluence. They are usually split by trypsinization 1:10 or 1:20, depending on scheduling needs, and grown for 2-3 days before the next split.
100 mg/mL Pluronic F-127 (Sigma #P2443), in dry DMSO
Compound Plates: 384-well round bottom plate, e.g. Corning 384-well Polypropylene Round Bottom #3656
Cell Plates: 384-well tissue culture treated plate, e.g. Greiner #781091-1B
Bath1 buffer. Glucose 10 mM (1.8 g/L), Magnesium Chloride (Anhydrous), 1 mM (0.095 g/L), Calcium Chloride, 2 mM (0.222 g/L), HEPES 10 mM (2.38 g/L), Potassium Chloride, 4.5 mM (0.335 g/L), Sodium Chloride 160 mM (9.35 g/L).
Hexyl Dye Solution: Bath1 Buffer+0.5% β-cyclodextrin (make this prior to use, Sigma #C4767), 8 μM CC2-DMPE+DiSBAC6(3). To make the solution Add volume of 10% Pluronic F127 stock equal to volumes of CC2-DMPE+DiSBAC6(3). The order of preparation is first mix Pluronic and CC2-DMPE, then add DiSBAC6(3) while vortexing, then add Bath1+β-Cyclodextrin.
1) Pre-spot compounds (in neat DMSO) into compound plates. Vehicle control (neat DMSO), the positive control (20 mM DMSO stock tetracaine, 125 μM final in assay) and test compounds are added to each well at 160× desired final concentration in neat DMSO. Final compound plate volume will be 80 μL (80-fold intermediate dilution from 1 μL DMSO spot; 160-fold final dilution after transfer to cell plate). Final DMSO concentration for all wells in assay is 0.625%.
2) Prepare Hexyl Dye Solution.
3) Prepare cell plates. On the day of the assay, medium is aspirated and cells are washed three times with 100 μL of Bathl Solution, maintaining 25 μL residual volume in each well.
4) Dispense 25 μL per well of Hexyl Dye Solution into cell plates. Incubate for 20-35 minutes at room temp or ambient conditions.
5) Dispense 80 μL per well of Bathl into compound plates. Acid Yellow-17 (1 mM) is added and Potassium Chloride can be altered from 4.5 to 20 mM depending on the NaV subtype and assay sensitivity.
6) Wash cell plates three times with 100 μL per well of Bathl, leaving 25 μL of residual volume. Then transfer 25 uL per well from Compound Plates to Cell Plates. Incubate for 20-35 minutes at room temp/ambient condition
7) Read Plate on E-VIPR. Use the current-controlled amplifier to deliver stimulation wave pulses for typically 9 seconds and a scan rate of 400 Hz. A pre-stimulus recording is performed for 0.5 seconds to obtain the un-stimulated intensities baseline. The stimulatory waveform is applied for 9 seconds followed by 0.5 seconds of post-stimulation recording to examine the relaxation to the resting state. […]

human NaV subtype, sequence (Q15858 whole entry): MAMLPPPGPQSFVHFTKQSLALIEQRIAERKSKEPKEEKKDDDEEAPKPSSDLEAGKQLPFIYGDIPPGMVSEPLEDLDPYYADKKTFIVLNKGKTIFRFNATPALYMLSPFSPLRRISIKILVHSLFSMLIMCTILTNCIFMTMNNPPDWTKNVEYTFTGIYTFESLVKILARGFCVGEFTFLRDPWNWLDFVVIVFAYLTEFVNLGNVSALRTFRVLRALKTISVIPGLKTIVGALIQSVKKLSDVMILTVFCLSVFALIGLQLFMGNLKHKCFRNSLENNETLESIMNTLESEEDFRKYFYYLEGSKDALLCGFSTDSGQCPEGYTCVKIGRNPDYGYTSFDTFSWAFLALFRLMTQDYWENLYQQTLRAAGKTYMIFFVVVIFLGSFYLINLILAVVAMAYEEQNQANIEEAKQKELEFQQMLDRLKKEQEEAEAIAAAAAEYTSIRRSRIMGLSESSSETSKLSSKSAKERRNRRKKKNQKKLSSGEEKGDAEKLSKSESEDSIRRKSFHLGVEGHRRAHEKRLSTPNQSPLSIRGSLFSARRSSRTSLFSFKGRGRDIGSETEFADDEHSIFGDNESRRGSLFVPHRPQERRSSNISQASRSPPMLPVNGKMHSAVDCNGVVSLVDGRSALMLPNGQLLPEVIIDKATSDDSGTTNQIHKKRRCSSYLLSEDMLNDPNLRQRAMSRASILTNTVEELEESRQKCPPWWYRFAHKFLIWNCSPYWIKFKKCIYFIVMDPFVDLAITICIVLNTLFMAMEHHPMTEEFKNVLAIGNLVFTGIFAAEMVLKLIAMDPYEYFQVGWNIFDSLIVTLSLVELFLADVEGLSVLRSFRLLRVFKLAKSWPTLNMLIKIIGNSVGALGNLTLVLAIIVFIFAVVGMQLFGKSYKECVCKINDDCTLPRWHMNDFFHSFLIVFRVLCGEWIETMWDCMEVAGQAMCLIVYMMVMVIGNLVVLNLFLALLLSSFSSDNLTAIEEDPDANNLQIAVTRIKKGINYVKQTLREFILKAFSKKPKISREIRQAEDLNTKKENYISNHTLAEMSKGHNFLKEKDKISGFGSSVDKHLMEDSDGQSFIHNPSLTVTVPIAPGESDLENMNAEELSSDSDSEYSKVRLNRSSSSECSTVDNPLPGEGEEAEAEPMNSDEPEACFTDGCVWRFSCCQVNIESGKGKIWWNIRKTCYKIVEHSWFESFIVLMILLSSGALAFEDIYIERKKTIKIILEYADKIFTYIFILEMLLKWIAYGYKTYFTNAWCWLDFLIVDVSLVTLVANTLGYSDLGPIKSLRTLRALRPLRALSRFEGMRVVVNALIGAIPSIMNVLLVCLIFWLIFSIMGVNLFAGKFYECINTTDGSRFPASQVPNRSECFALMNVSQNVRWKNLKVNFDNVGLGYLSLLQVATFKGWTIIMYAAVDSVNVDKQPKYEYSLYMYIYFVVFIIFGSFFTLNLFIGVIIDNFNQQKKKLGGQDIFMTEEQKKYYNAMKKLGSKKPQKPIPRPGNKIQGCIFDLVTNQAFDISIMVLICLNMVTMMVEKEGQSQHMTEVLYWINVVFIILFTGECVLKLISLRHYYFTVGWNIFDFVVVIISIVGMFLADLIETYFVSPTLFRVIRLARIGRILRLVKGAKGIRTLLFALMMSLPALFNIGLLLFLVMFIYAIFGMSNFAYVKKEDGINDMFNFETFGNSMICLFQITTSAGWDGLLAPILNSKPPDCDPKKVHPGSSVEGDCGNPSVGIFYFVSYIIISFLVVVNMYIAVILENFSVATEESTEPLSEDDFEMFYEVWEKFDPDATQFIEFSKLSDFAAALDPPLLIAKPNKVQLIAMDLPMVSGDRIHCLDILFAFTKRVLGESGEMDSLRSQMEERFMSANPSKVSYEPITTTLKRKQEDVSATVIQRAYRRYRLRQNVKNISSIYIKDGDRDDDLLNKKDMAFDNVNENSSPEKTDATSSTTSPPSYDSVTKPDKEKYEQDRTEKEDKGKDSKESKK

Cc1cc(C(=O)N2CCC3(CC2)Oc2ccccc2-n2c(C#N)ccc23)ccc1[C@@](C)(O)CO [Compound 54] was tested. Which IC50 did it give?
The IC50 was less than 2000 nM.

COC(=O)C(C)(C)c1ccc(C(=O)N2CCC3(CC2)Oc2ccccc2-c2c3cnn2C)cc1OC [Compound 403] was tested. Which IC50 did it give?
Its IC50 is less than 2000 nM.

N#Cc1ccc2n1-c1ccccc1OC21CCN(C(=O)c2ccc(C(F)(F)F)cc2)CC1 [Compound 481] was tested. Which IC50 did it give?
The IC50 was greater than 5000 nM.

For COc1cc(C(=O)N2CCC3(CC2)Oc2cc(F)ccc2-n2cccc23)ccc1OC[C@H](O)CO [Compound 606], which IC50 is on record?
The IC50 was less than 2000 nM.

How did the IC50 turn out when C[C@](O)(CO)c1ccc(C(=O)N2CCC3(CC2)Oc2ccccc2-n2c(C(F)(F)F)ccc23)cc1 [Compound 640] was run?
The IC50 was less than 2000 nM.

With COc1cc(C(=O)N2CCC3(CC2)Oc2ccccc2-n2c(C#N)ccc23)ccc1OC[C@@H](O)CO [Compound 680] as the molecule, how does the IC50 read?
The IC50 was less than 2000 nM.
